Biological target: human GPR40 receptor (Homo sapiens, UniProt O14842)
Assay: IP1 accumulation measurements using the IPOne assay system
Type: cell-based
Details: 1321N1 cells stably expressing human GPR40; stimulation 1 h at 37° C.
Protocol: IP1 accumulation measurements using the IPOne assay system—1321N1 cells stably expressing human GPR40 receptor (Euroscreen, Belgium) are seeded 24 h before the assay in white 384-well plates in culture medium containing 10% FCS, 1% Na-Pyruvate and 400 μg/mL G418. IP1 is assayed according to the manufacturer's description (Cisbio Bioassays, France). In brief, the assay is started by substitution of the culture medium by stimulation buffer (Hepes 10 mM, CaCl2 1 mM, MgCl2 0.5 mM, KCl 4.2 mM, NaCl 146 mM, glucose 5.5 mM and LiCl 50 mM, pH 7.4). Cells are stimulated for 1 h at 37° C., 5% CO2 by addition of the compounds that are diluted in stimulation buffer containing LiCl. Assays are stopped by adding HTRF-conjugates (IP1-d2 and Anti-IP1 cryptate Tb) and lysis buffer, provided by the manufacturer. After an incubation time of 1 h at room temperature plates are measured using an EnVision™, Perkin Elmer. The obtained fluorescence ratios at 665/615 […] are then used to calculate the pEC50 values using Assay Explorer 3.3 Software (Accelrys, Inc.) by interpolation using an IP1 reference curve and subsequent sigmoidal curve fitting allowing for a variable hill slope.

human GPR40 receptor, sequence (O14842 whole entry): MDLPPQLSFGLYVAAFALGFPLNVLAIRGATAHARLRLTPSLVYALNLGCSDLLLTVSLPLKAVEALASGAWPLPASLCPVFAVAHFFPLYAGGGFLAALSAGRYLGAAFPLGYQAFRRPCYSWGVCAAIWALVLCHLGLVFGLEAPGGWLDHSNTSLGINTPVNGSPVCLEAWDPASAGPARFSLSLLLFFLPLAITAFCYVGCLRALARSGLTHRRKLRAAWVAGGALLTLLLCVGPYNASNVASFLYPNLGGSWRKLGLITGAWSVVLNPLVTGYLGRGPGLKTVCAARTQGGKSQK

Compound | EC50 [nM]
O=C(O)C[C@@H]1COc2cc(O[C@@H]3CCc4c(Oc5ccncc5)ccc(F)c43)ccc21 [Example 11, {(S)-6-[(R)-7-Fluoro-4-pyrid-4-yloxy-indan-1-yloxy]-2,3-dihydro-benzofuran-3-yl}-acetic acid] | 18
COc1cc(Oc2ccc(F)c3c2CC[C@H]3Oc2ccc3c(c2)OC[C@H]3CC(=O)O)ccc1C#N [Example 37, {(S)-6-[(R)-4-(4-Cyano-3-methoxy-phenoxy)-7-fluoro-indan-1-yloxy]-2,3-dihydro-benzofuran-3-yl}-acetic acid] | 5
COc1ccc(Oc2ccc(F)c3c2CC[C@H]3Oc2ccc3c(c2)OC[C@H]3CC(=O)O)cn1 [Example 34, {(S)-6-[(R)-7-Fluoro-4-(2-methoxy-pyrid-5-yloxy)-indan-1-yloxy]-2,3-dihydro-benzofuran-3-yl}-acetic acid] | 5
COc1ccc(Oc2ccc(F)c3c2CC[C@H]3Oc2ccc3c(c2)OC[C@H]3CC(=O)O)c(F)c1 [Example 56, {(S)-6-[(R)-4-(2-Fluoro-4-methoxy-phenoxy)-7-fluoro-indan-1-yloxy]-2,3-dihydro-benzofuran-3-yl}-acetic acid] | 6
Cc1ccc(Oc2ccc(F)c3c2CC[C@H]3Oc2ccc3c(c2)OC[C@H]3CC(=O)O)c(C#N)c1 [Example 23, {(S)-6-[(R)-4-(2-Cyano-4-methyl-phenoxy)-7-fluoro-indan-1-yloxy]-2,3-dihydro-benzofuran-3-yl}-acetic acid] | 7
O=C(O)C[C@@H]1COc2cc(O[C@@H]3CCc4c(Oc5cnccn5)ccc(F)c43)ccc21 [Example 10, {(S)-6-[(R)-7-Fluoro-4-pyrazin-2-yloxy-indan-1-yloxy]-2,3-dihydro-benzofuran-3-yl}-acetic acid] | 35
Cc1cc(Oc2ccc(F)c3c2CC[C@H]3Oc2ccc3c(c2)OC[C@H]3CC(=O)O)ccc1C#N [Example 21, {(S)-6-[(R)-4-(4-Cyano-3-methyl-phenoxy)-7-fluoro-4-indan-1-yloxy]-2,3-dihydro-benzofuran-3-yl}-acetic acid] | 4
N#Cc1ccc(F)cc1Oc1ccc(F)c2c1CC[C@H]2Oc1ccc2c(c1)OC[C@H]2CC(=O)O [Example 30, {(S)-6-[(R)-4-(2-Cyano-5-fluoro-phenoxy)-7-fluoro-indan-1-yloxy]-2,3-dihydro-benzofuran-3-yl}-acetic acid] | 11
COc1cc(C#N)ccc1Oc1ccc(F)c2c1CC[C@H]2Oc1ccc2c(c1)OC[C@H]2CC(=O)O [Example 52, {(S)-6-[(R)-4-(4-Cyano-2-methoxy-phenoxy)-7-fluoro-indan-1-yloxy]-2,3-dihydro-benzofuran-3-yl}-acetic acid] | 6
N#Cc1ccc(Br)cc1Oc1ccc(F)c2c1CC[C@H]2Oc1ccc2c(c1)OC[C@H]2CC(=O)O [Example 50, {(S)-6-[(R)-4-(5-Bromo-2-cyano-phenoxy)-7-fluoro-indan-1-yloxy]-2,3-dihydro-benzofuran-3-yl}-acetic acid] | 6
N#Cc1ccc(Oc2ccc(F)c3c2CC[C@H]3Oc2ccc3c(c2)OC[C@H]3CC(=O)O)cc1 [Example 8, {(S)-6-[(R)-4-(4-Cyano-phenoxy)-7-fluoro-indan-1-yloxy]-2,3-dihydro-benzofuran-3-yl}-acetic acid] | 4
N#Cc1cc(OC(F)(F)F)ccc1Oc1ccc(F)c2c1CC[C@H]2Oc1ccc2c(c1)OC[C@H]2CC(=O)O [Example 26, {(S)-6-[(R)-4-(2-Cyano-4-trifluoromethoxy-phenoxy)-7-fluoro-indan-1-yloxy]-2,3-dihydro-benzofuran-3-yl}-acetic acid] | 30
Cc1nc2ccc(Oc3ccc(F)c4c3CC[C@H]4Oc3ccc4c(c3)OC[C@H]4CC(=O)O)cc2s1 [Example 59, {(S)-6-[(R)-7-Fluoro-4-(2-methyl-benzothiazol-6-yloxy)-indan-1-yloxy]-2,3-dihydro-benzofuran-3-yl}-acetic acid] | 5
N#Cc1ccc(F)c(Oc2ccc(F)c3c2CC[C@H]3Oc2ccc3c(c2)OC[C@H]3CC(=O)O)c1 [Example 54, {(S)-6-[(R)-4-(5-Cyano-2-fluoro-phenoxy)-7-fluoro-indan-1-yloxy]-2,3-dihydro-benzofuran-3-yl}-acetic acid] | 29
N#Cc1ccc(Oc2ccc(F)c3c2CC[C@H]3Oc2ccc3c(c2)OC[C@H]3CC(=O)O)cc1F [Example 29, {(S)-6-[(R)-4-(4-Cyano-3-fluoro-phenoxy)-7-fluoro-indan-1-yloxy]-2,3-dihydro-benzofuran-3-yl}-acetic acid] | 6
Cc1nccc(Oc2ccc(F)c3c2CC[C@H]3Oc2ccc3c(c2)OC[C@H]3CC(=O)O)n1 [Example 9, {(S)-6-[(R)-7-Fluoro-4-(2-methyl-pyrimid-4-yloxy)-indan-1-yloxy]-2,3-dihydro-benzofuran-3-yl}-acetic acid] | 155
CS(=O)(=O)c1ccc(Oc2ccc(F)c3c2CC[C@H]3Oc2ccc3c(c2)OC[C@H]3CC(=O)O)cc1 [Example 18, {(S)-6-[(R)-7-Fluoro-4-(4-methylsulfonyl-phenoxy)-indan-1-yloxy]-2,3-dihydro-benzofuran-3-yl}-acetic acid] | 41
Cn1c(Oc2ccc(F)c3c2CC[C@H]3Oc2ccc3c(c2)OC[C@H]3CC(=O)O)nc2ccccc21 [Example 13, {(S)-6-[(R)-7-Fluoro-4-(1-methyl-1H-benzoimidazol-2-yloxy)-indan-1-yloxy]-2,3-dihydro-benzofuran-3-yl}-acetic acid] | 216
Cc1cccc(C)c1Oc1ccc(F)c2c1CC[C@H]2Oc1ccc2c(c1)OC[C@H]2CC(=O)O [Example 5, {(S)-6-[(R)-7-Fluoro-4-(2,6-dimethyl-phenoxy)-indan-1-yloxy]-2,3-dihydro-benzofuran-3-yl}-acetic acid] | 70
O=C(O)C[C@@H]1COc2cc(O[C@@H]3CCc4c(Oc5ccc6ncccc6c5)ccc(F)c43)ccc21 [Example 20, {(S)-6-[(R)-7-Fluoro-4-Quinolin-6-yloxy-indan-1-yloxy]-2,3-dihydro-benzofuran-3-yl}-acetic acid] | 6
O=C(O)C[C@@H]1COc2cc(O[C@@H]3CCc4c(Oc5ccc6ccccc6n5)ccc(F)c43)ccc21 [Example 40, {(S)-6-[(R)-7-Fluoro-4-(Quinolin-2-yloxy)-indan-1-yloxy]-2,3-dihydro-benzofuran-3-yl}-acetic acid] | 22
Cc1nc2ccc(Oc3ccc(F)c4c3CC[C@H]4Oc3ccc4c(c3)OC[C@H]4CC(=O)O)cc2o1 [Example 58, {(S)-6-[(R)-7-Fluoro-4-(2-methyl-benzoxazol-6-yloxy)-indan-1-yloxy]-2,3-dihydro-benzofuran-3-yl}-acetic acid] | 3
Cc1noc2ccc(Oc3ccc(F)c4c3CC[C@H]4Oc3ccc4c(c3)OC[C@H]4CC(=O)O)cc12 [Example 60, {(S)-6-[(R)-7-Fluoro-4-(3-methyl-benzo[d]isoxazol-5-yloxy)-indan-1-yloxy]-2,3-dihydro-benzofuran-3-yl}-acetic acid] | 3
N#Cc1cccc(Oc2ccc(F)c3c2CC[C@H]3Oc2ccc3c(c2)OC[C@H]3CC(=O)O)c1 [Example 27, {(S)-6-[(R)-4-(3-Cyano-phenoxy)-7-fluoro-indan-1-yloxy]-2,3-dihydro-benzofuran-3-yl}-acetic acid] | 7
CN(C)c1ccc(Oc2ccc(F)c3c2CC[C@H]3Oc2ccc3c(c2)OC[C@H]3CC(=O)O)cn1 [Example 31] | 120
O=C(O)C[C@@H]1COc2cc(O[C@@H]3CCc4c(Oc5cccnc5)ccc(F)c43)ccc21 [Example 6, {(S)-6-[(R)-7-Fluoro-4-pyrid-3-yloxy-indan-1-yloxy]-2,3-dihydro-benzofuran-3-yl}-acetic acid] | 33
Cc1cc(C#N)ccc1Oc1ccc(F)c2c1CC[C@H]2Oc1ccc2c(c1)OC[C@H]2CC(=O)O [Example 24, {(S)-6-[(R)-4-(4-Cyano-2-methyl-phenoxy)-7-fluoro-indan-1-yloxy]-2,3-dihydro-benzofuran-3-yl}-acetic acid] | 3
O=C(O)C[C@@H]1COc2cc(O[C@@H]3CCc4c(Oc5ncc(F)cn5)ccc(F)c43)ccc21 [Example 33, {(S)-6-[(R)-7-Fluoro-4-(5-fluoro-pyrimid-2-yloxy)-indan-1-yloxy]-2,3-dihydro-benzofuran-3-yl}-acetic acid] | 31
O=C(O)C[C@@H]1COc2cc(O[C@@H]3CCc4c(Oc5ccnc(C(F)(F)F)c5)ccc(F)c43)ccc21 [Example 32, {(S)-6-[(R)-7-Fluoro-4-(2-trifluoromethyl-pyrid-4-yloxy)-indan-1-yloxy]-2,3-dihydro-benzofuran-3}-acetic acid] | 6
COc1c(F)cc(Oc2ccc(F)c3c2CC[C@H]3Oc2ccc3c(c2)OC[C@H]3CC(=O)O)cc1F [Example 57, {(S)-6-[(R)-4-(3,5-Difluoro-4-methoxy-phenoxy)-7-fluoro-indan-1-yloxy]-2,3-dihydro-benzofuran-3-yl}-acetic acid] | 7

Source: patent US8815864B2, “Indanyloxydihydrobenzofuranylacetic acids” (Boehringer Ingelheim International GmbH, priority 2012, dated 2014)
